Among the data in patent US9809574B2, “Isoindoline or isoquinoline compounds, a process for their preparation and pharmaceutical compositions containing them” (LES LABORATOIRES SERVIER, priority 2013, dated 2017) are IC50 values, retold here.

For one assay, the target named is Bcl-2 protein (histag-Bcl-2, UniProtKB P10415) (Homo sapiens (Human), UniProt P10415). Nature of the assay: Inhibition of Bcl-2 by the fluorescence polarisation technique. To be noted: fluorescence polarisation test; incubation for 2 hours; read-out: IC50 (nM) Bcl-2 FP. Type of assay: binding. From the text: For partial inhibitors, the percentage fluorescence polarisation inhibition for a given concentration of the test compound is indicated.
Sequence of Bcl-2 protein (P10415 whole entry): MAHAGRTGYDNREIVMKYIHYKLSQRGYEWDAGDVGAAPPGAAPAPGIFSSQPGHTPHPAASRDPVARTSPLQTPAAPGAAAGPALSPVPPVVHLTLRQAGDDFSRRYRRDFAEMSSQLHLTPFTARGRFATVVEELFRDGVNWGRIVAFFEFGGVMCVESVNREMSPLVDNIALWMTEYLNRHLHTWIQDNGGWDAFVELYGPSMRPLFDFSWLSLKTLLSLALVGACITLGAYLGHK

The subject of assay [1] is RS4; 11 leukaemia cell line. Nature of the assay: In vitro cytotoxicity, Microculture Tetrazolium Assay (MTT). In kind it is cell-based. To be noted: Homo sapiens, 11 cells exposed for 48 hours. The protocol:
The cytotoxicity studies were carried out on the RS4; 11 leukaemia cell line and on H146 small Cell Lung Carcinoma cell line. The cells are distributed onto microplates and exposed to the test compounds for 48 hours. The cell viability is then quantified by a colorimetric assay, the Microculture Tetrazolium Assay (Cancer Res., 1987, 47, 939-942).

Counter-ions that a name gives are not always drawn.

`C[C@@H]1Cc2ccccc2CN1C(=O)c1cc2c(cc1-c1cc(C(=O)N(C)c3ccc(O)cc3)c3n1CCCC3)CCN(C(=O)[C@H](C)c1ccccc1)C2` [Example 91, N-(4-Hydroxyphenyl)-N-methyl-3-{7-[(3R)-3-methyl-1,2,3,4-tetrahydroisoquinoline-2-carbonyl]-2-[(2R)-2-phenylpropanoyl]-1,2,3,4-tetrahydroisoquinolin-6-yl}-5,6,7,8-tetrahydroindolizine-1-carboxamide]: the 50% inhibitory concentration (IC50) (in general, the concentration at which inhibition is half-maximal) at Bcl-2 protein stood at 7 nM; in assay [1], 73 nM.
For `C[C@@H]1Cc2ccccc2CN1C(=O)c1cc2c(cc1-c1cc(C(=O)N(C)c3ccc(O)cc3)c3n1CCCC3)CN(CC(=O)Nc1ccccc1)C2` [Example 92, N-(4-Hydroxyphenyl)-N-methyl-3-{6-[(3R)-3-methyl-1,2,3,4-tetrahydroisoquinoline-2-carbonyl]-2-[(phenylcarbamoyl)methyl]-2,3-dihydro-1H-isoindol-5-yl}-5,6,7,8-tetrahydroindolizine-1-carboxamide], in that order: 20 nM and 105 nM.
For `C[C@@H]1Cc2ccccc2CN1C(=O)c1cc2c(cc1-c1cc(C(=O)N(C)c3ccc(O)cc3)c3n1CCCC3)CCN(C(=O)OCc1ccccc1)C2` [Example 93, Benzyl 6-{1-[(4-hydroxyphenyl)(methyl)carbamoyl]-5,6,7,8-tetrahydroindolizin-3-yl}-7-[(3R)-3-methyl-1,2,3,4-tetrahydroisoquinoline-2-carbonyl]-1,2,3,4-tetrahydroisoquinoline-2-carboxylate], in that order: 5.1 nM and 11 nM.
For `CN(C(=O)c1cc(-c2cc3c(cc2C(=O)N2Cc4ccccc4C[C@H]2CN2CCOCC2)CN(C(=O)OCc2ccccc2)CC3)n2c1CCCC2)c1ccc(O)cc1` [Example 94, Benzyl 6-{1-[(4-hydroxyphenyl)(methyl)carbamoyl]-5,6,7,8-tetrahydroindolizin-3-yl}-7-[(3S)-3-(morpholin-4-ylmethyl)-1,2,3,4-tetrahydroisoquinoline-2-carbonyl]-1,2,3,4-tetrahydroisoquinoline-2-carboxylate], in that order: 5.6 nM and 19 nM.
Turning to `CCC(C(=O)N1CCc2cc(-c3cc(C(=O)N(C)c4ccc(O)cc4)c4n3CCCC4)c(C(=O)N3Cc4ccccc4C[C@H]3C)cc2C1)c1ccccc1` (stereo partly drawn) [Example 95, N-(4-Hydroxyphenyl)-N-methyl-3-{7-[(3R)-3-methyl-1,2,3,4-tetrahydroisoquinoline-2-carbonyl]-2-(2-phenylbutanoyl)-1,2,3,4-tetrahydroisoquinolin-6-yl}-5,6,7,8-tetrahydroindolizine-1-carboxamide], the 50% inhibitory concentration (IC50) came to 14 nM at Bcl-2 protein and 115 nM in assay [1].
As to `C[C@@H]1Cc2ccccc2CN1C(=O)c1cc2c(cc1-c1cc(C(=O)N(C)c3ccc(O)cc3)c3n1CCCC3)CCN(C(=O)Cc1ccc(NCCN3CCOCC3)cc1)C2` [Example 96, N-(4-Hydroxyphenyl)-N-methyl-3-{7-[(3R)-3-methyl-1,2,3,4-tetrahydroisoquinoline-2-carbonyl]-2-[2-(4-{[2-(morpholin-4-yl)ethyl]amino}phenyl)acetyl]-1,2,3,4-tetrahydroisoquinolin-6-yl}-5,6,7,8-tetrahydroindolizine-1-carboxamide], the figures for the IC50 (on Bcl-2 protein; in assay [1]) were 3.9 nM and 9.1 nM, respectively.
For `C[C@@H]1Cc2ccccc2CN1C(=O)c1cc2c(cc1-c1cc(C(=O)N(C)c3ccc(O)cc3)c3n1CCCC3)CCN(C(=O)Cc1ccc(N3CCN(C)CC3)cc1)C2` [Example 97, N-(4-Hydroxyphenyl)-N-methyl-3-{7-[(3R)-3-methyl-1,2,3,4-tetrahydroisoquinoline-2-carbonyl]-2-{2-[4-(4-methylpiperazin-1-yl)phenyl]acetyl}-1,2,3,4-tetrahydroisoquinolin-6-yl}-5,6,7,8-tetrahydroindolizine-1-carboxamide], in that order: 4.9 nM and 15 nM.
For `Cc1ccc(OC(=O)N2CCc3cc(-c4cc(C(=O)N(C)c5ccc(O)cc5)c5n4CCCC5)c(C(=O)N4Cc5ccccc5C[C@H]4CN4CCOCC4)cc3C2)cc1` [Example 98, 4-Methylphenyl 6-{1-[(4-hydroxyphenyl)(methyl)carbamoyl]-5,6,7,8-tetrahydroindolizin-3-yl}-7-[(3S)-3-(morpholin-4-ylmethyl)-1,2,3,4-tetrahydroisoquinoline-2-carbonyl]-1,2,3,4-tetrahydroisoquinoline-2-carboxylate hydrochloride], in that order: 3.8 nM and 1.8 nM.
Taken in the same sequence, the figures for `Cc1cccc(OC(=O)N2CCc3cc(-c4cc(C(=O)N(C)c5ccc(O)cc5)c5n4CCCC5)c(C(=O)N4Cc5ccccc5C[C@H]4CN4CCOCC4)cc3C2)c1` [Example 99, 3-Methylphenyl 6-{1-[(4-hydroxyphenyl)(methyl)carbamoyl]-5,6,7,8-tetrahydroindolizin-3-yl}-7-[(3S)-3-(morpholin-4-ylmethyl)-1,2,3,4-tetrahydroisoquinoline-2-carbonyl]-1,2,3,4-tetrahydroisoquinoline-2-carboxylate] were 5.5 nM and 13 nM.
Consider `Cc1ccccc1OC(=O)N1CCc2cc(-c3cc(C(=O)N(C)c4ccc(O)cc4)c4n3CCCC4)c(C(=O)N3Cc4ccccc4C[C@H]3CN3CCOCC3)cc2C1` [Example 100, 2-Methylphenyl 6-{1-[(4-hydroxyphenyl)(methyl)carbamoyl]-5,6,7,8-tetrahydroindolizin-3-yl}-7-[(3S)-3-(morpholin-4-ylmethyl)-1,2,3,4-tetrahydroisoquinoline-2-carbonyl]-1,2,3,4-tetrahydroisoquinoline-2-carboxylate], for which the figures for the IC50 (on Bcl-2 protein; in assay [1]) were 3.9 nM and 6.5 nM, respectively.
For the compound `COc1ccc(CC(=O)N2Cc3cc(C(=O)N4Cc5ccccc5C[C@H]4C)c(-c4cc(C(=O)N(C)c5ccc(O)cc5)c(C)n4C)cc3C2)cc1` [Example 101, N-(4-Hydroxyphenyl)-5-{2-[2-(4-methoxyphenyl)acetyl]-6-[(3R)-3-methyl-1,2,3,4-tetrahydroisoquinoline-2-carbonyl]-2,3-dihydro-1H-isoindol-5-yl}-N,1,2-trimethyl-1H-pyrrole-3-carboxamide], the IC50 worked out at 2.6 nM at Bcl-2 protein and 31 nM in assay [1].
Taken in the same sequence, the figures for `Cc1c(C(=O)N(C)c2ccc(O)cc2)cc(-c2cc3c(cc2C(=O)N2Cc4ccccc4C[C@H]2C)CN(C(=O)Cc2ccc(F)cc2)C3)n1C` [Example 102, 5-{2-[2-(4-Fluorophenyl)acetyl]-6-[(3R)-3-methyl-1,2,3,4-tetrahydroisoquinoline-2-carbonyl]-2,3-dihydro-1H-isoindol-5-yl}-N-(4-hydroxyphenyl)-N,1,2-trimethyl-1H-pyrrole-3-carboxamide] were 5 nM and 75 nM.
Taken in the same sequence, the figures for `Cc1c(C(=O)N(C)c2ccc(O)cc2)cc(-c2cc3c(cc2C(=O)N2Cc4ccccc4C[C@H]2C)CN(C(=O)COc2ccccc2)C3)n1C` [Example 103, N-(4-Hydroxyphenyl)-N,1,2-trimethyl-5-{6-[(3R)-3-methyl-1,2,3,4-tetrahydroisoquinoline-2-carbonyl]-2-(2-phenoxyacetyl)-2,3-dihydro-1H-isoindol-5-yl}-1H-pyrrole-3-carboxamide] were 3.6 nM and 46 nM.
As to `Cc1c(C(=O)N(C)c2ccc(O)cc2)cc(-c2cc3c(cc2C(=O)N2Cc4ccccc4C[C@H]2C)CN(C(=O)C(C)Oc2ccccc2)C3)n1C` (stereo partly drawn) [Example 104, N-(4-hydroxyphenyl)-N,1,2-trimethyl-5-{6-[(3R)-3-methyl-1,2,3,4-tetrahydroisoquinoline-2-carbonyl]-2-(2-phenoxypropanoyl)-2,3-dihydro-1H-isoindol-5-yl}-1H-pyrrole-3-carboxamide], the figures for the half-maximal inhibitory concentration (IC50) (on Bcl-2 protein; in assay [1]) were 6.7 nM and 65 nM, respectively.
Taken in the same sequence, the figures for `Cc1c(C(=O)N(C)c2ccc(O)cc2)cc(-c2cc3c(cc2C(=O)N2Cc4ccccc4C[C@H]2C)CN(C(=O)Oc2ccc(Cl)cc2)C3)n1C` [Example 105, 4-Chlorophenyl 5-{4-[(4-hydroxyphenyl)(methyl)carbamoyl]-1,5-dimethyl-1H-pyrrol-2-yl}-6-[(3R)-3-methyl-1,2,3,4-tetrahydroisoquinoline-2-carbonyl]-2,3-dihydro-1H-isoindole-2-carboxylate] were 7.3 nM and 31 nM.
Taken in the same sequence, the figures for `Cc1c(C(=O)N(C)c2ccc(O)cc2)cc(-c2cc3c(cc2C(=O)N2Cc4ccccc4C[C@H]2C)CN(C(=O)Oc2ccc(F)cc2)C3)n1C` [Example 106, 4-Fluorophenyl 5-{4-[(4-hydroxyphenyl)(methyl)carbamoyl]-1,5-dimethyl-1H-pyrrol-2-yl}-6-[(3R)-3-methyl-1,2,3,4-tetrahydroisoquinoline-2-carbonyl]-2,3-dihydro-1H-isoindole-2-carboxylate] were 5.3 nM and 38 nM.
Turning to `Cc1ccc(OC(=O)N2Cc3cc(C(=O)N4Cc5ccccc5C[C@H]4C)c(-c4cc(C(=O)N(C)c5ccc(O)cc5)c(C)n4C)cc3C2)cc1` [Example 107, 4-Methylphenyl 5-{4-[(4-hydroxyphenyl)(methyl)carbamoyl]-1,5-dimethyl-1H-pyrrol-2-yl}-6-[(3R)-3-methyl-1,2,3,4-tetrahydroisoquinoline-2-carbonyl]-2,3-dihydro-1H-isoindole-2-carboxylate], the values for the concentration for half-maximal inhibition (IC50) (at Bcl-2 protein; in assay [1]) were 3.5 nM and 6.9 nM, respectively.
Taken in the same sequence, the figures for `C[C@@H]1Cc2ccccc2CN1C(=O)c1cc2c(cc1-c1cc(C(=O)N(C)c3ccc(O)cc3)c3n1CCCC3)CCN(C(=O)Cc1ccc(NCCN(C)C)cc1)C2` [Example 108, 3-{2-[2-(4-{[2-(Dimethylamino)ethyl]amino}phenyl)acetyl]-7-[(3R)-3-methyl-1,2,3,4-tetrahydroisoquinoline-2-carbonyl]-1,2,3,4-tetrahydroisoquinolin-6-yl}-N-(4-hydroxyphenyl)-N-methyl-5,6,7,8-tetrahydroindolizine-1-carboxamide hydrochloride] were 2.7 nM and 15 nM.
